Laboratory results as given in PubChem BioAssay AID248 (DTP/NCI, 2004).
“And” between values parts separate entries of the source, which are not always exact repeats. Equal entries are not always repeated. Inconclusive results and toxic doses are left out.

Test system: L1210 leukemia ip in BDF1 mice, survival T/C
Test: NCI In Vivo Anticancer Drug Screen. Data for tumor model L1210 Leukemia (intraperitoneal) in B6D2F1 (BDF1) mice
Details: endpoint: mean survival time, higher = longer survival
Method in brief: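 In this screen, tumor-bearing mice given compound are compared to those given vehicle, and their survival values are reported as a treated-to-control quotient.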

Q: `O=NN(CCCl)C(=O)NC1CCCCC1` was tested. Which T/C (dose: 0.06 mg/kg/injection, schedule: Q03HX024 (ip), vehicle: saline) did it give?
A: The T/C was 101 % of control.

Q: What about the T/C (dose: 0.06 mg/kg/injection, schedule: Q03HX024 (oral), vehicle: saline) of the same compound?
A: The T/C was 98 % of control.

Q: What about the T/C (dose: 0.06 mg/kg/injection, schedule: Q03HX040 (oral), vehicle: saline) of the same compound?
A: The T/C was 115 % of control.

Q: And the T/C (dose: 0.13 mg/kg/injection, schedule: Q03HX024 (oral), vehicle: saline)?
A: Its T/C is 108 % of control.

Q: And the T/C (dose: 0.13 mg/kg/injection, schedule: Q03HX040 (oral), vehicle: saline)?
A: Its T/C is 153 % of control.

Q: What about the T/C (dose: 0.16 mg/kg/injection, schedule: Q#B X003 (ip), vehicle: carboxymethylcellulose (CMC)) of the same compound?
A: The T/C was 103 % of control.

Q: And the T/C (dose: 0.33 mg/kg/injection, schedule: Q#B X003 (ip), vehicle: carboxymethylcellulose (CMC))?
A: The T/C was 95 % of control.

Q: And the T/C (dose: 0.39 mg/kg/injection, schedule: Q03HX040 (ip), vehicle: carboxymethylcellulose (CMC))?
A: The T/C was 100 % of control.

Q: And the T/C (dose: 0.5 mg/kg/injection, schedule: Q01DX005 (ip), vehicle: saline)?
A: Its T/C is 101 % of control.

Q: What about the T/C (dose: 0.66 mg/kg/injection, schedule: Q#B X003 (ip), vehicle: carboxymethylcellulose (CMC)) of the same compound?
A: Its T/C is 97 % of control.

Q: What about the T/C (dose: 0.78 mg/kg/injection, schedule: Q03HX024 (ip), vehicle: carboxymethylcellulose (CMC)) of the same compound?
A: The T/C was 106 % of control.

Q: And the T/C (dose: 1.0 mg/kg/injection, schedule: Q01DX001 (ip), vehicle: saline)?
A: The T/C was 104 % of control.

Q: What about the T/C (dose: 1.0 mg/kg/injection, schedule: Q01DX001 (oral), vehicle: saline) of the same compound?
A: Its T/C is 100 % of control.

Q: And the T/C (dose: 1.0 mg/kg/injection, schedule: Q01DX005 (ip), vehicle: saline)?
A: Its T/C is 104 % of control.

Q: And the T/C (dose: 1.0 mg/kg/injection, schedule: Q03HX040 (ip), vehicle: saline)?
A: The T/C was 100 % of control.

Q: And the T/C (dose: 1.0 mg/kg/injection, schedule: Q## X001 (ip), vehicle: carboxymethylcellulose (CMC))?
A: The T/C was 106 % of control.

Q: And the T/C (dose: 1.33 mg/kg/injection, schedule: Q#B X003 (ip), vehicle: carboxymethylcellulose (CMC))?
A: The T/C was 110 % of control.

Q: What about the T/C (dose: 1.56 mg/kg/injection, schedule: Q01DX009 (ip), vehicle: carboxymethylcellulose (CMC)) of the same compound?
A: The T/C was 105 % of control.

Q: What about the T/C (dose: 1.56 mg/kg/injection, schedule: Q03HX024 (ip), vehicle: carboxymethylcellulose (CMC)) of the same compound?
A: The T/C was 120 % of control.

Q: And the T/C (dose: 1.56 mg/kg/injection, schedule: Q03HX040 (ip), vehicle: carboxymethylcellulose (CMC))?
A: Its T/C is 119 % of control.

Q: What about the T/C (dose: 2.0 mg/kg/injection, schedule: Q01DX Z (ip), vehicle: carboxymethylcellulose (CMC)) of the same compound?
A: The T/C was 124 % of control.

Q: What about the T/C (dose: 2.0 mg/kg/injection, schedule: Q04DX004 (ip), vehicle: Klucel (hydroxypropylcellulose) (HPC)) of the same compound?
A: The T/C was 94 % of control.

Q: And the T/C (dose: 2.66 mg/kg/injection, schedule: Q#B X003 (ip), vehicle: carboxymethylcellulose (CMC))?
A: The T/C was 121 % of control.

Q: And the T/C (dose: 2.8 mg/kg/injection, schedule: Q01DX015 (ip), vehicle: carboxymethylcellulose (CMC))?
A: Its T/C is 112 % of control.

Q: And the T/C (dose: 3.12 mg/kg/injection, schedule: Q01DX005 (ip), vehicle: carboxymethylcellulose (CMC))?
A: Its T/C is 113 % of control.

Q: And the T/C (dose: 3.12 mg/kg/injection, schedule: Q01DX Z (ip), vehicle: carboxymethylcellulose (CMC))?
A: The T/C was 172 % of control.

Q: What about the T/C (dose: 4.0 mg/kg/injection, schedule: Q01DX009 (oral), vehicle: saline) of the same compound?
A: The T/C was 112 % of control.

Q: What about the T/C (dose: 4.0 mg/kg/injection, schedule: Q03HX003 (oral), vehicle: saline) of the same compound?
A: Its T/C is 111 % of control.

Q: And the T/C (dose: 4.2 mg/kg/injection, schedule: Q## X015 (ip), vehicle: carboxymethylcellulose (CMC))?
A: The T/C was 113 % of control.

Q: What about the T/C (dose: 4.4 mg/kg/injection, schedule: Q04DX004 (ip), vehicle: Klucel (hydroxypropylcellulose) (HPC)) of the same compound?
A: The T/C was 113 % of control.

Q: What about the T/C (dose: 5.0 mg/kg/injection, schedule: Q## X032 (ip), vehicle: carboxymethylcellulose (CMC)) of the same compound?
A: The T/C was 106 % of control and 110 % of control.

Q: What about the T/C (dose: 6.0 mg/kg/injection, schedule: Q02DX005 (ip), vehicle: carboxymethylcellulose (CMC)) of the same compound?
A: The T/C was 154 % of control.

Q: What about the T/C (dose: 6.0 mg/kg/injection, schedule: Q02DX006 (ip), vehicle: carboxymethylcellulose (CMC)) of the same compound?
A: Its T/C is 158 % of control.

Q: What about the T/C (dose: 6.0 mg/kg/injection, schedule: Q02DX007 (ip), vehicle: carboxymethylcellulose (CMC)) of the same compound?
A: Its T/C is 163 % of control.

Q: And the T/C (dose: 6.0 mg/kg/injection, schedule: Q## X008 (ip), vehicle: carboxymethylcellulose (CMC))?
A: The T/C was 108 % of control.

Q: What about the T/C (dose: 6.25 mg/kg/injection, schedule: Q01DX001 (ip), vehicle: Klucel (hydroxypropylcellulose) (HPC)) of the same compound?
A: Its T/C is 116 % of control.

Q: And the T/C (dose: 6.25 mg/kg/injection, schedule: Q01DX001 (ip), vehicle: carboxymethylcellulose (CMC))?
A: The T/C was 109 % of control.

Q: What about the T/C (dose: 6.25 mg/kg/injection, schedule: Q01DX001 (oral), vehicle: carboxymethylcellulose (CMC)) of the same compound?
A: The T/C was 122 % of control.

Q: And the T/C (dose: 6.25 mg/kg/injection, schedule: Q01DX005 (ip), vehicle: carboxymethylcellulose (CMC))?
A: Its T/C is 157 % of control.

Q: What about the T/C (dose: 6.25 mg/kg/injection, schedule: Q07DX Z (ip), vehicle: carboxymethylcellulose (CMC)) of the same compound?
A: Its T/C is 112 % of control.

Q: What about the T/C (dose: 6.7 mg/kg/injection, schedule: Q04DX004 (ip), vehicle: Klucel (hydroxypropylcellulose) (HPC)) of the same compound?
A: The T/C was 159 % of control.

Q: And the T/C (dose: 7.2 mg/kg/injection, schedule: Q## X032 (ip), vehicle: carboxymethylcellulose (CMC))?
A: The T/C was 110 % of control.

Q: What about the T/C (dose: 7.5 mg/kg/injection, schedule: Q01DX001 (iv), vehicle: Klucel (hydroxypropylcellulose) (HPC)) of the same compound?
A: Its T/C is 114 % of control.

Q: And the T/C (dose: 8.0 mg/kg/injection, schedule: Q03HX003 (oral), vehicle: saline)?
A: The T/C was 120 % of control.

Q: And the T/C (dose: 8.0 mg/kg/injection, schedule: Q## X032 (ip), vehicle: carboxymethylcellulose (CMC))?
A: Its T/C is 113 % of control.
